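96-well plates; 48 h exposure; 5 concentrations. Endpoints by linear interpolation between flanking doses. Not reached: highest tested concentration assigned. GI50 = concentration required for 50% inhibition of growth.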 Activity calls are given as the source filed them. Rule as the data show it: active = GI50 up to about 1.1 µM and inactive = higher.
Legend:
Assay in all cases: DTP human tumour cell line panel, 48 h
[1] = test system: UACC-257
[2] = test system: SF-295
[3] = test system: NCI-H460
[4] = test system: HCT-116
[5] = test system: COLO 205
[6] = test system: ACHN
[7] = test system: UO-31
[8] = test system: UACC-62
[9] = test system: HOP-92
[10] = test system: LXFL 529
[11] = test system: LOX IMVI
[12] = test system: DMS-273
[13] = test system: A549
[14] = test system: SK-MEL-28
[15] = test system: SR
[16] = test system: RXF 393
[17] = test system: HCC 2998
[18] = test system: HOP-62
[19] = test system: M19-MEL
[20] = test system: OVCAR-4
[21] = test system: CCRF-CEM
[22] = test system: IGROV-1
[23] = test system: SN12C
[24] = test system: NCI-H23
[25] = test system: RXF 631
[26] = test system: SF-268
[27] = test system: KM-20L2
[28] = test system: HOP-18
[29] = test system: TK-10
[30] = test system: OVCAR-5
[31] = test system: SNB-78
[32] = test system: SNB-75
[33] = test system: SNB-19
[34] = test system: M14
[35] = test system: SW-620
[36] = test system: DMS-114
[37] = test system: K562
[38] = test system: SK-MEL-5
[39] = test system: NCI-H522
[40] = test system: A498
[41] = test system: OVCAR-3
[42] = test system: RPMI-8226
[43] = test system: OVCAR-8
[44] = test system: 786-0
[45] = test system: NCI-H226
[46] = test system: SK-OV-3
[47] = test system: HT-29
[48] = test system: U-251
[49] = test system: HL-60
[50] = test system: SK-MEL-2
[51] = test system: Malme-3M
[52] = test system: HCT-15
[53] = test system: KM12
[54] = test system: SF-539
[55] = test system: CAKI-1
[56] = test system: EKVX
[57] = test system: MOLT-4
[58] = test system: XF498
[59] = test system: DLD-1

Measured: GI50

Cc1ccc(NC(=O)C(=O)CC(=O)c2c(C)[n+]([O-])c3ccccc3[n+]2[O-])cc1
inactive: [1] 24.2 µM | [2] 51.1 µM | [3] 27.9 µM | [4] 18.6 µM | [5] 23.9 µM | [6] 26.2 µM | [7] > 100 µM | [8] 17.7 µM | [9] 21.9 µM | [10] 35.2 µM | [11] 20 µM | [12] 25.9 µM | [13] 31 µM | [14] 46.6 µM | [15] 20.5 µM | [16] 54.8 µM | [17] 44 µM | [18] > 100 µM | [19] 16.4 µM | [20] 22.6 µM | [21] 20.1 µM | [22] 22 µM | [23] 36.5 µM | [24] 20.3 µM | [25] 36.5 µM | [26] 35.8 µM | [27] 30.8 µM | [28] 30.9 µM | [29] 91 µM | [30] 40.6 µM | [31] 49.4 µM | [32] 23.6 µM | [33] 54.1 µM | [34] 23.9 µM | [35] 33.7 µM | [36] 18.2 µM | [37] 21.5 µM | [38] 26.8 µM | [39] 20.9 µM | [40] > 100 µM | [41] 12 µM | [42] 24.4 µM | [43] 22.8 µM | [44] 40.6 µM | [45] > 100 µM | [46] 73.1 µM | [47] 33.6 µM | [48] 31 µM | [49] 19.3 µM | [50] 21 µM | [51] 27.9 µM | [53] 29.2 µM | [54] 29.2 µM | [55] 79.1 µM | [56] 16.9 µM | [57] 23.4 µM
31.8 µM: [52]

COc1ccc(O)c2c1C(=O)CCCC2=O
> 100 µM: [52]
inactive: [1] > 100 µM | [2] > 100 µM | [3] > 100 µM | [4] > 100 µM | [5] > 100 µM | [6] > 100 µM | [7] > 100 µM | [8] > 100 µM | [10] > 100 µM | [11] > 100 µM | [12] > 100 µM | [13] > 100 µM | [14] > 100 µM | [17] > 100 µM | [18] > 100 µM | [19] > 100 µM | [20] > 100 µM | [21] > 100 µM | [22] > 100 µM | [23] > 100 µM | [24] > 100 µM | [25] > 100 µM | [26] > 100 µM | [27] > 100 µM | [29] > 100 µM | [30] > 100 µM | [31] > 100 µM | [58] > 100 µM | [33] > 100 µM | [34] > 100 µM | [35] > 100 µM | [36] > 100 µM | [37] > 100 µM | [38] > 100 µM | [39] > 100 µM | [40] > 100 µM | [41] > 100 µM | [59] > 100 µM | [42] > 100 µM | [43] > 100 µM | [44] > 100 µM | [46] > 100 µM | [47] > 100 µM | [48] > 100 µM | [49] > 100 µM | [50] > 100 µM | [51] > 100 µM | [53] > 100 µM | [54] > 100 µM | [55] > 100 µM | [56] 40.1 µM | [57] > 100 µM
